Calls of active or inactive are those of the source. The rule behind the calls is not given here.
Biological target: Serine/threonine-protein kinase mTOR (Homo sapiens) (UniProt P42345)
Experiment: mTOR FRB domain ligand binding – biophysical, NMR (AID 1648)
Conditions: NMR binding to FRB domain, chemical shift

Sequence of Serine/threonine-protein kinase mTOR (Homo sapiens) (P42345 2015-2114): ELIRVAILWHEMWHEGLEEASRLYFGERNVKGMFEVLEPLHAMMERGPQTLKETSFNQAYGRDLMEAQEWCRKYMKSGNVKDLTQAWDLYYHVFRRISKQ

| SMILES | Kd |
| --- | --- |
| O=C(O)CCC1NCC2CC1CN1CCCCC21 (configuration not stated) | > 4 mM (inactive) |
| CCCCCC1C(=O)CCC1CC(=O)O (configuration not stated) | > 4 mM (inactive) |
| Cc1cc2c(=O)n(C)c(SCC(N)=O)nc2s1 | > 4 mM (inactive) |
| Cc1cc(C)nc(/N=C(\N)N2CCc3ccccc32)n1 | > 4 mM (inactive) |
| Oc1cc2c(cc1O)C1c3ccc(O)c(O)c3OCC1(O)C2 (configuration not stated) | > 4 mM (inactive) |
| CC(=O)Nc1ccc(Nc2nnc(C)c(=O)[nH]2)cc1 | > 4 mM (inactive) |
| Cn1c(SCC(N)=O)nnc1-c1c[nH]c2ccccc12 | > 4 mM (inactive) |
| Cc1ncoc1C(=O)Nc1ccccc1C(N)=O | > 4 mM (inactive) |
| Cc1n[nH]c(C)c1NC(=O)c1cccc(F)c1 | > 4 mM (inactive) |
| S=C1NC(=S)NC(c2ccc3c(c2)OCO3)N1 | > 4 mM (inactive) |
| O=C(O)C1CSC2(CCCCC2)N1 (configuration not stated) | > 4 mM (inactive) |
| CC[C@H](/C=C/C(C)C1CCC2C3CCC4=CC(=O)CC[C@]4(C)C3CC[C@]12C)C(C)C (some centres not stated) | > 4 mM (inactive) |
| NC(=O)Cc1nc2ccccc2[nH]1 | > 4 mM (inactive) |
| N#CCCn1ccnc1-c1ccccc1 | > 4 mM (inactive) |
| CC(=O)NC(c1ccccc1)c1cccnc1 (configuration not stated) | > 4 mM (inactive) |
| O=C(CSc1ncccn1)NCc1ccco1 | > 4 mM (inactive) |
| Cc1cc(C)n(C2CCS(=O)(=O)C2)n1 (configuration not stated) | > 4 mM (inactive) |
| CC(C)c1ccc2c(c1)CCC1C(C)(C(N)=O)CCCC21C (configuration not stated) | > 4 mM (inactive) |
| COc1cccc2c1CCC1=CC(=O)CC[C@@]12C | > 4 mM (inactive) |
| C[C@]12C=CC(=O)C=C1CCC1C2CC[C@]2(C)C(=O)CCC12 (some centres not stated) | > 4 mM (inactive) |
| Cc1ccc2c(c1)CC[C@H]1CC(=O)CC[C@]21C | > 4 mM (inactive) |
| O=C1NC(=S)S/C1=C/c1ccncc1 | > 4 mM (inactive) |
| NC(=O)C1CCN(Cc2ccccc2)CC1 | > 4 mM (inactive) |
| Nc1ccc2c(C(F)(F)F)cc(=O)oc2c1 | > 4 mM (inactive) |
| CC(=O)c1ccc(-n2ccnc2)cc1 | > 4 mM (inactive) |

| SMILES | Kd |
| --- | --- |
| NCc1n[nH]c(=O)c2ccccc12 | > 4 mM (inactive) |
| O=C(Nc1ccccc1CO)c1ccccc1F | > 4 mM (inactive) |
| COc1ccc(C(=O)NCC(=O)O)cc1 | > 4 mM (inactive) |
| O=C(O)C1CCN(S(=O)(=O)c2cccs2)CC1 | > 4 mM (inactive) |
| CC(=O)N1CCn2c3c(c(=O)c4cc(C)ccc42)CCC31 (configuration not stated) | > 4 mM (inactive) |
| CSc1nc2nccc(N)n2n1 | > 4 mM (inactive) |
| Cc1nc(N)sc1C(=O)Nc1nccs1 | > 4 mM (inactive) |
| CC(=O)c1ccc(CC2SC(N)=NC2=O)cc1 (configuration not stated) | > 4 mM (inactive) |
| O=C(NCO)c1ccccc1Cl | > 4 mM (inactive) |
| Cn1c(=O)cc(N2CCCCC2)[nH]c1=O | > 4 mM (inactive) |
| Cc1cc2ncc(C(=O)Nc3ccccc3)c(C)n2n1 | > 4 mM (inactive) |
| CC(C)Oc1ccc(C2CC(=O)NNC2=O)cc1 (configuration not stated) | > 4 mM (inactive) |
| COc1ccc(CN2CCOCC2)c(C)c1C | > 4 mM (inactive) |
| Cc1ccccc1N1C(=O)CC(=O)NC1=O | > 4 mM (inactive) |
| CN1CCC(NC(=O)c2cnccn2)CC1 | > 4 mM (inactive) |
| C=C(C)CSc1nc2nc(C)cc(C)n2n1 | > 4 mM (inactive) |
| COC(=O)c1c(OC)cc2c(c1C)Oc1c(Cl)c(OC(C)=O)c(Cl)c(C)c1C(=O)O2 | > 4 mM (inactive) |
| NC1=NC(=O)/C(=C/c2ccccc2[N+](=O)[O-])S1 | > 4 mM (inactive) |
| CNC(=O)CC1Sc2ccccc2NC1=O (configuration not stated) | > 4 mM (inactive) |
| CC(=O)OCC(=O)[C@@]1(O)CCC2C3CC[C@@H]4C[C@H](OC(C)=O)CC[C@]4(C)C3C(=O)C[C@@]21C (some centres not stated) | > 4 mM (inactive) |
| COc1ccccc1NC(=O)CCC(=O)O | > 4 mM (inactive) |
| O=S(=O)(Cc1ccccc1)N1CCCCCC1 | > 4 mM (inactive) |
| O=c1cc(-c2ccccc2)oc2cc(O)c(O)c(O)c12 | > 4 mM (inactive) |
| CC(=O)Nc1ccc(Cl)c(C(N)=O)c1 | > 4 mM (inactive) |
| CC(=O)N(c1ccccc1)C1C=CS(=O)(=O)C1 (configuration not stated) | > 4 mM (inactive) |

| SMILES | Kd |
| --- | --- |
| O=C1CC(=O)N2N=C(c3ccccc3)SC2=N1 | > 4 mM (inactive) |
| COc1c(O)cccc1O | > 4 mM (inactive) |
| CS(C)=C1C(=O)NC(=O)N(c2ccccc2)C1=O | > 4 mM (inactive) |
| CCc1nnc(NC(C)=O)s1 | > 4 mM (inactive) |
| CC(=O)N1CC2(C)CN(C(C)=O)CC(C)(C1)C2O (configuration not stated) | > 4 mM (inactive) |
| CCOC(=O)c1cnc2sccn2c1=O | > 4 mM (inactive) |
| CCOC(=O)c1c(C)cc(O)c(C)c1O | > 4 mM (inactive) |
| O=C1C=C(O)c2ccccc2C1=O | > 4 mM (inactive) |
| O=C(Nc1nnc(-c2cccnc2)o1)c1ccccc1F | > 4 mM (inactive) |
| O=C(O)CSCC(=O)Nc1cccc(O)c1 | > 4 mM (inactive) |
| CCN=Cc1c(O)n(-c2ccccc2C)c(=O)[nH]c1=O | > 4 mM (inactive) |
| O=c1[nH]c(=S)[nH]c2c1CCC2 | > 4 mM (inactive) |
| COc1ccccc1NC(N)=S | > 4 mM (inactive) |
| NC(=O)NC1NC(=O)NC1=O (configuration not stated) | > 4 mM (inactive) |
| COCc1cc(=O)oc2cc(O)c(Cl)cc12 | > 4 mM (inactive) |
| Cc1csc(NC(=O)c2ccoc2C)n1 | > 4 mM (inactive) |
| OCc1csc(-c2cccs2)n1 | > 4 mM (inactive) |
| Cc1noc(C)c1C(=O)NC1=NCCS1 | > 4 mM (inactive) |
| NCc1csc2ccccc12 | > 4 mM (inactive) |
| CC(=O)O[C@@H]1CC2C(C)(C)[C@H](O)C=C[C@]2(C)C2CC[C@@]3(C)[C@H](c4ccoc4)OC(=O)C4OC43[C@@]21C (some centres not stated) | > 4 mM (inactive) |
| Cc1cc(C(=O)O)n[nH]1 | > 4 mM (inactive) |
| COc1cc(OC)c2c(c1)O[C@H](c1ccc(OC)c(OC)c1)[C@@H](O)C2 | > 4 mM (inactive) |
| COc1ccccc1Nc1nncc(=O)[nH]1 | > 4 mM (inactive) |
| CC(=O)Nc1ccc(NC(=O)/C=C\C(=O)O)cc1 | > 4 mM (inactive) |
| CC(=O)c1c(C)nc(-c2ccc(F)cc2)n1O | > 4 mM (inactive) |

| SMILES | Kd |
| --- | --- |
| CCN1CCC2(CC1)CC1CC3C=CC1(CN2C(C)=O)O3 (configuration not stated) | > 4 mM (inactive) |
| COC(=O)c1cnccc1C(F)(F)F | > 4 mM (inactive) |
| Cc1nnc(SCC(=O)N2CCc3ccccc32)s1 | > 4 mM (inactive) |
| COc1cc(O)c2c(=O)c(O)c(-c3ccc(O)c(O)c3)oc2c1 | > 4 mM (inactive) |
| O=C(Nc1cccc(Cl)c1)c1cnn2cccnc12 | > 4 mM (inactive) |
| O=C(NCc1ccco1)c1cccc(F)c1 | > 4 mM (inactive) |
| CC(C)(O)[C@@H]1[C@H]2OC(=O)[C@@H]1[C@]1(O)C[C@H]3O[C@]34C(=O)O[C@H]2[C@]14C | > 4 mM (inactive) |
| Nc1ccc(S(=O)(=O)N2CCOCC2)cc1 | > 4 mM (inactive) |
| CC1CCN(C(=O)c2ccc(NS(C)(=O)=O)cc2)CC1 | > 4 mM (inactive) |
| Nc1nnc(-c2ccncc2)s1 | > 4 mM (inactive) |
| Nc1cc(C(=O)O)ccc1N1CCCCCC1 | > 4 mM (inactive) |
| OCc1ccc(-n2cncn2)cc1 | > 4 mM (inactive) |
| O=C1C=C(Nc2ccccc2O)c2ccccc2C1=O | > 4 mM (inactive) |
| Cn1c(=O)n(C)c2nc([N+](=O)[O-])c(Cl)cc21 | > 4 mM (inactive) |
| CN(C)S(=O)(=O)c1ccc(N2CCOCC2)nc1 | > 4 mM (inactive) |
| COc1ccc(C(=O)CC(=O)O)c2c1C=CC(C)(C)O2 | > 4 mM (inactive) |
| Cn1cc(Cl)c(C(=O)Nc2ccncc2)n1 | > 4 mM (inactive) |
| ON=c1ccc2nc3ccccc3nc2cc1 | > 4 mM (inactive) |
| Cc1ccc(O)c(NC(=O)c2ccco2)c1 | > 4 mM (inactive) |
| O=C(O)c1cc(O)c2c(c1)C(=O)c1cc(O)cc(O)c1C2=O | > 4 mM (inactive) |
| NC(=O)CC(=O)NC12CC3CC(CC(C3)C1)C2 | > 4 mM (inactive) |
| CC(N)C(=O)c1ccco1 (configuration not stated) | > 4 mM (inactive) |
| O=C(c1ccncc1)c1ccc(Br)cc1 | > 4 mM (inactive) |
| O=C1CCC(=O)N1c1ccc(O)cc1 | > 4 mM (inactive) |
| CC(C)Oc1ccc(NC(N)=O)cc1 | > 4 mM (inactive) |

| SMILES | Kd |
| --- | --- |
| CCNC(=S)NS(=O)(=O)c1ccccc1 | > 4 mM (inactive) |
| CSc1ccccc1NC(=O)c1ccco1 | > 4 mM (inactive) |
| COCCn1c(SC)nc2c1c(=O)[nH]c(=O)n2C | > 4 mM (inactive) |
| CC(=O)c1ccc(NS(=O)(=O)c2cccc(C)c2)cc1 | > 4 mM (inactive) |
| O=C1CC(=O)N(c2ccccc2)c2ccccc21 | > 4 mM (inactive) |
| NCCc1nc2ccccc2[nH]1 | > 4 mM (inactive) |
| CN1CCN(C(=O)c2ccccc2N)CC1 | > 4 mM (inactive) |
| Cc1ccccc1NC(=O)N1CCOCC1 | > 4 mM (inactive) |
| NC12CC3CC(C1)CC(C(=O)O)(C3)C2 | > 4 mM (inactive) |
| O=[N+]([O-])c1ccc2c(c1)N([O-])C1(CCCCC1)[N+]2=O | > 4 mM (inactive) |
| S=c1nc[nH]c2c1cnn2-c1ccccc1 | > 4 mM (inactive) |
| Oc1cc(O)c2c(c1)O[C@H](c1ccc(O)c(O)c1)[C@@H](O)C2 | > 4 mM (inactive) |
| Cc1ccc(CCC(N)=O)o1 | > 4 mM (inactive) |
| Cc1cc(=O)n2ncn(Cc3ccccc3)c2n1 | > 4 mM (inactive) |
| NC(=O)CC1Sc2ccccc2NC1=O (configuration not stated) | > 4 mM (inactive) |
| CN1C2CC3C[C@H]1C(O3)C2O (some centres not stated) | > 4 mM (inactive) |
| O=C1C=CC(=O)N1c1ccccc1O | > 4 mM (inactive) |
| O=C(Nc1ccc(F)cc1F)c1ccco1 | > 4 mM (inactive) |
| Cc1ccc(N2C(=O)CC(=O)NC2=O)cc1 | > 4 mM (inactive) |
| c1ccc(CCc2nc(-c3ccncc3)no2)cc1 | > 4 mM (inactive) |
| O=[N+]([O-])c1cccc(-c2c[n+](=O)c3c(n2[O-])CCC3)c1 | > 4 mM (inactive) |
| Cn1c(=O)c2c([nH]c(=O)n2C)n(C)c1=O | > 4 mM (inactive) |
